In patent US8710045B2, “Agents for preventing and treating disorders involving modulation of the ryanodine receptors” (The Trustees of Columbia University in the City of New York, priority 2004, dated 2014):
Values joined by “and” are separate entries in the source; they are usually repeats but may differ in a detail not shown here. Equal entries are not always repeated.

Tests used:
PKA-phosphorylated RyR2 = target: T1, PKA-phosphorylated RyR2 (Homo sapiens, UniProt Q92736); assay: FKBP12.6 rebinding assay: FKBP12.6 binding to PKA-phosphorylated RyR2 in cardiac SR; details: compound 0.5-1000 nM; Michaelis-Menten curve fitting
T1 construct: from tissue
Procedure: Samples are centrifuged at 95,000 g for 10 min and the pellets are washed three times in 0.2 ml imidazole buffer. The final pellets are pooled and resuspended in imidazole buffer (final concentration≈10 μg/μl). […] Samples then are centrifuged at 100,000 g for 10 minutes and pellets washed 3 times with imidizol buffer. […] Immunoblots are developed using an anti-FKBP antibody (1:3,000 dilution). […] The intracellular solution contains (in mM): CsCl, 60; CaCl2, 1; EGTA, 11; MgCl2, 1; K2ATP, 5; HEPES, 10; aspartic acid, 50; pH 7.4 (CsOH). Under these conditions, it is expected that the measured current was carried by Ba^2+ primarily through L-type calcium channels which is referred to as ICa,L. Drugs are applied by a local solution changer and reach the cell membrane within 1 s.
The FKBP12.6 rebinding assay described above is used to determine the amount of FKBP12.6 binding to PKA-phosphorylated RyR2 at various concentrations (0.5-1000 nM) of the compounds shown. EC50 values are calculated using Michaelis-Menten curve fitting.
The EC50 values are calculated using Michaelis-Menten curve fitting.

hERG current = hERG current (Homo sapiens, UniProt Q12809); assay: hERG current, PatchXpress 7000A automatic parallel patch clamp in hERG-transfected HEK 293 cells (Example 6); details: for Individual Data (% Inhibition): single cell; for hERG current inhibition at the highest concentration tested: highest concentration tested (10 μM)
Procedure: (§1) HEK293 cells were transfected with a plasmid containing the hERG cDNA and a neomycin resistance gene. Stable transfectants were selected by culturing the cells in the presence of G418. The selection pressure was maintained by continued culture in the presence of G418. […] Cells for use in electrophysiology were cultured in 35 mm dishes.
(§2) Onset and steady state block of hERG current was measured using a pulse pattern with fixed amplitudes (conditioning prepulse: +20 mV for 2 seconds; test pulse: −50 mV for 2 seconds) repeated at 10 second intervals, from a holding potential of −80 mV. Peak tail current was measured during the 2 second step to −50 mV. A steady state was maintained for at least 30 seconds before applying the test compound or the positive control. Peak tail current was monitored until a new steady state was achieved. Test compound concentrations were applied cumulatively in ascending order without washout between applications.
(§3) Data acquisition and analysis was performed using the suite of pCLAMP (Vre. 8.2) programs (Axon Instruments, Union City, Calif.). Steady state was defined by the limiting constant rate of change with time (linear time dependence). The steady state before and after application of the test or control compounds was used to calculate the percentage of current inhibited at each concentration. […] Nonlinear squares fits were solved with the Solver add-in for Excel 2000 (Microsoft, Redmond, Wash.).
(§4) Multiple compounds of the invention were tested for their effects on hERG currents. The compounds tested were: ARM036-Na, ARM047, ARM048, ARM050, ARM057, ARM064, ARM074, ARM075, ARM076, ARM077, ARM101, ARM102, ARM103, ARM104, ARM106, ARM107 and ARM26. […] Electrophysiological recordings were made using the PatchXpress 7000 A (Molecular Devices) automatic parallel patch clamp system. […] The duration of exposure to each test concentration was 5 minutes.

hERG = hERG (Homo sapiens, UniProt Q12809); assay: as above; details: human, HEK 293 cells stably transfected with hERG cDNA
Procedure: as §1, §2, §3, §4

[1] = Individual Data (% Inhibition), single cell

hERG, sequence (Q12809 whole entry): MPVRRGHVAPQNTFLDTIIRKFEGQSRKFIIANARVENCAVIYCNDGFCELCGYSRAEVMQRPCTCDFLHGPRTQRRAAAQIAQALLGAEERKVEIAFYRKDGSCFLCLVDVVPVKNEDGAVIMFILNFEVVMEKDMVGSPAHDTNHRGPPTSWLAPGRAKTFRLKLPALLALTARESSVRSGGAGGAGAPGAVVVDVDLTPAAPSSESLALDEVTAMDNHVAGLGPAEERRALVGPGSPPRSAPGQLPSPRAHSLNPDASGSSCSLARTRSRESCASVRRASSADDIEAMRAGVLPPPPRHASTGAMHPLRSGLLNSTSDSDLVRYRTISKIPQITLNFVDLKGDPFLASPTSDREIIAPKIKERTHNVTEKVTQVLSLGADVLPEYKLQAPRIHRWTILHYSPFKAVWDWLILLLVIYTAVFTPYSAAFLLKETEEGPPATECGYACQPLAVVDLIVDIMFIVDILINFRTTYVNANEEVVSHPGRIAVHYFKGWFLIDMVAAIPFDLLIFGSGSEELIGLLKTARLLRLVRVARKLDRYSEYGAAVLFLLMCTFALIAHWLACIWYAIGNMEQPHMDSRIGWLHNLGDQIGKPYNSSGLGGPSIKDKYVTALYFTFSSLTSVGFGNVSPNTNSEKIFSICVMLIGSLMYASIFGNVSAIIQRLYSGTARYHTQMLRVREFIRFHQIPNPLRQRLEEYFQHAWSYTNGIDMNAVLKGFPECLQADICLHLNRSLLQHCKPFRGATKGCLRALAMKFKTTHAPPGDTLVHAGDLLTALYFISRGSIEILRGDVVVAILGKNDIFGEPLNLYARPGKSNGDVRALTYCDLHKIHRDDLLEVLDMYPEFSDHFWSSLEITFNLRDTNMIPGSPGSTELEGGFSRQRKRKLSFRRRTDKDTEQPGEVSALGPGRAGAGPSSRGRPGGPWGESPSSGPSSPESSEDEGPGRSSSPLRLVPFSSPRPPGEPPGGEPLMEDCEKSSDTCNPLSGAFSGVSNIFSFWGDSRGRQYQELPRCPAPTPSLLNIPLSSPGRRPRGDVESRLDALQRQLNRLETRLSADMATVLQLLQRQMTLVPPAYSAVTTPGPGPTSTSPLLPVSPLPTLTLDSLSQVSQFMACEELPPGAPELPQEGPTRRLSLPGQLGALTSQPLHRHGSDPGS
hERG current, sequence (Q12809 whole entry): as above

Structure (SMILES): COc1ccc2c(c1)CN(C(=O)N1CCN(Cc3ccc4c(c3)OCO4)CC1)CCS2 [S47]
- EC50 (PKA-phosphorylated RyR2): 20 nM
- IC50 (hERG current): 2500 nM
- Mean % hERG Inhibition (hERG current; 0.01 μM): 2.7%
- Individual Data (% Inhibition) (hERG current; 0.01 μM, listed as ARM047, 0.01 µM): 1.7% and 3.7%
- Mean % hERG Inhibition (hERG current; 0.1 μM): 9.7%
- Individual Data (% Inhibition) (hERG current; 0.1 μM, listed as ARM047, 0.1 µM): 6.5% and 12.9%
- Mean % hERG Inhibition (hERG current; 1 μM): 29.6%
- Individual Data (% Inhibition) (hERG current; 1 μM, listed as ARM047, 1 µM): 30.8% and 20.4% and 37.5%
- Mean % hERG Inhibition (hERG current; 10 μM): 78.0%
- Individual Data (% Inhibition) (hERG current; 10 μM, listed as ARM047, 10 µM): 82.1% and 75.9%

Structure (SMILES): COc1ccc2c(c1)CN(C(=O)NCc1ccccc1)CCS2 [S49]
- EC50 (PKA-phosphorylated RyR2): 81 nM

Structure (SMILES): COc1ccc2c(c1)CN(C(=O)N1CCCCC1)CCS2 [S50]
- EC50 (PKA-phosphorylated RyR2): 40 nM
- Mean % hERG Inhibition (hERG current; 0.01 μM): 1.8%
- Individual Data (% Inhibition) (hERG current; 0.01 μM, listed as ARM050, 0.01 µM): 1.1% and 2.4%
- Mean % hERG Inhibition (hERG current; 0.1 μM): 3.7%
- Individual Data (% Inhibition) (hERG current; 0.1 μM, listed as ARM050, 0.1 µM): 2.7% and 4.7%
- Mean % hERG Inhibition (hERG current; 1 μM): 6.1%
- Individual Data (% Inhibition) (hERG current; 1 μM, listed as ARM050, 1 µM): 7.1% and 5.1%
- Mean % hERG Inhibition (hERG current; 10 μM): 24.2%
- Individual Data (% Inhibition) (hERG current; 10 μM, listed as ARM050, 10 µM): 27.0% and 21.3%
- hERG current inhibition at the highest concentration tested (hERG current): less than 50%

Structure (SMILES): COc1ccc2c(c1)CN(C(=O)NO)CCS2 [S51]
- EC50 (PKA-phosphorylated RyR2): 175 nM

Structure (SMILES): COc1ccc2c(c1)CN(C(=O)NCc1ccc3c(c1)CCO3)CCS2 [S52]
- EC50 (PKA-phosphorylated RyR2): 143 nM

Structure (SMILES): COc1ccc2c(c1)CN(C(=O)N1CCN(c3ccccc3)CC1)CCS2 [S53]
- EC50 (PKA-phosphorylated RyR2): 200 nM

Structure (SMILES): COc1ccc2c(c1)CN(S(=O)(=O)Nc1cccnc1)CCS2 [S54]
- EC50 (PKA-phosphorylated RyR2): 77 nM

Structure (SMILES): COc1ccc2c(c1)CN(C(=O)CCN1CCCCC1c1nnc(Cc3ccccc3)o1)CCS2 (stereo not shown) [S55]
- EC50 (PKA-phosphorylated RyR2): 111 nM

Structure (SMILES): COc1ccc2c(c1)CN(C(=O)CCN1CCCC[C@H]1c1nnc(Cc3ccccc3)o1)CCS2 [S56]
- EC50 (PKA-phosphorylated RyR2): 95 nM

Structure (SMILES): COC(=O)C(=O)N1CCSc2ccc(OC)cc2C1 [S57]
- EC50 (PKA-phosphorylated RyR2): 73 nM
- Mean % hERG Inhibition (hERG current; 0.01 μM): 0.2%
- Individual Data (% Inhibition) (hERG current; 0.01 μM, listed as ARM057, 0.01 µM): 0.3% and 0.0%
- Mean % hERG Inhibition (hERG current; 0.1 μM): 7.3%
- Individual Data (% Inhibition) (hERG current; 0.1 μM, listed as ARM057, 0.1 µM): 4.1% and 10.4%
- Mean % hERG Inhibition (hERG current; 1 μM): 2.7%
- Individual Data (% Inhibition) (hERG current; 1 μM, listed as ARM057, 1 µM): 5.3% and 0.1%
- Mean % hERG Inhibition (hERG current; 10 μM): 13.6%
- Individual Data (% Inhibition) (hERG current; 10 μM, listed as ARM057, 10 µM): 18.3% and 8.8%
- hERG current inhibition at the highest concentration tested (hERG current): less than 50%

Structure (SMILES): COc1ccc2c(c1)CN(C(=O)CCN1CCCCC1)CCS2 [S58]
- EC50 (PKA-phosphorylated RyR2): 55 nM

Structure (SMILES): CCN(CC)C(=O)C(=O)N1CCSc2ccc(OC)cc2C1 [S59]
- EC50 (PKA-phosphorylated RyR2): 102 nM

Structure (SMILES): COc1ccc2c(c1)CN(C(=O)CCN1CCC(Cc3ccc(N)cc3)CC1)CCS2 [S60]
- EC50 (PKA-phosphorylated RyR2): 68 nM

Structure (SMILES): COc1ccc2c(c1)CN(C(=O)CCN1CCC(Cc3ccc(N)cc3N)CC1)CCS2 [S61]
- EC50 (PKA-phosphorylated RyR2): 95 nM

Structure (SMILES): COc1ccc2c(c1)CN(C(=O)CCN1CCC(Cc3ccc(N=[N+]=[N-])cc3)CC1)CCS2 [S62]
- EC50 (PKA-phosphorylated RyR2): 45 nM

Structure (SMILES): COc1ccc2c(c1)CN(C(=O)CCN1CCC(Cc3ccc(N=[N+]=[N-])cc3N=[N+]=[N-])CC1)CCS2 [S63]
- EC50 (PKA-phosphorylated RyR2): 52 nM

Structure (SMILES): COc1ccc2c(c1)CN(C(=O)NCCc1ccc(O)c(O)c1)CCS2 [S66]
- EC50 (PKA-phosphorylated RyR2): 110 nM

Structure (SMILES): COc1ccc2c(c1)CN(C(=O)NCCc1cnc[nH]1)CCS2 [S67]
- EC50 (PKA-phosphorylated RyR2): 89 nM

Structure (SMILES): c1ccc2c(c1)CNCCS2 [S68]
- EC50 (PKA-phosphorylated RyR2): ~100 nM

Structure (SMILES): O=C(NO)N1CCSc2ccccc2C1 [S74]
- EC50 (PKA-phosphorylated RyR2): 220 nM
- Mean % hERG Inhibition (hERG current; 0.01 μM): 1.9%
- Individual Data (% Inhibition) (hERG current; 0.01 μM, listed as ARM074, 0.01 µM): 0.8% and 3.0%
- Mean % hERG Inhibition (hERG current; 0.1 μM): 4.8%
- Individual Data (% Inhibition) (hERG current; 0.1 μM, listed as ARM074, 0.1 µM): 5.9% and 3.7%
- Mean % hERG Inhibition (hERG current; 1 μM): 1.3%
- Individual Data (% Inhibition) (hERG current; 1 μM, listed as ARM074, 1 µM): 0.2% and 2.4% and 5.6%
- Mean % hERG Inhibition (hERG current; 10 μM): 9.5%
- Individual Data (% Inhibition) (hERG current; 10 μM, listed as ARM074, 10 µM): 9.3% and 9.6% and 14.0%

Structure (SMILES): O=C(N1CCNCC1)N1CCSc2ccccc2C1 [S103]
- Individual Data (% Inhibition) (hERG current; 0.01 μM, listed as ARM103, 0.01 µM): 12.1% and 1.5%
- Individual Data (% Inhibition) (hERG current; 0.1 μM, listed as ARM103, 0.1 µM): 2.4%
- Individual Data (% Inhibition) (hERG current; 1 μM, listed as ARM103, 1 µM): 9.6%
- Individual Data (% Inhibition) (hERG current; 10 μM, listed as ARM103, 10 µM): 29.9%
- inhibition at 5 min, 0.1 µM (hERG; [1]): 4.2%
- inhibition at 5 min, 1 µM (hERG; [1]): 5%
- inhibition at 5 min, 10 µM (hERG; Individual Data (% Inhibition), 10 μM, single cell): 28.4%
- inhibition at 5 min, 0.01 µM (hERG; Mean % hERG Inhibition, 0.01 μM): 6.8%
- inhibition at 5 min, 0.1 µM (hERG; Mean % hERG Inhibition): 3.3%
- inhibition at 5 min, 1 µM (hERG; Mean % hERG Inhibition): 7.3%
- inhibition at 5 min, 10 µM (hERG; Mean % hERG Inhibition, 10 μM): 29.2%
- inhibition at 5 min, 10 µM (hERG; hERG current inhibition at the highest concentration tested, highest concentration tested (10 μM)): < 50%
